# According to patent US20230062100A1, “SUBSTITUTED AMINOQUINOLONES AS DGKALPHA INHIBITORS FOR IMMUNE ACTIVATION” (Bayer Aktiengesellschaft, priority 2019, published 2023):
# Target: DGKα (Homo sapiens, UniProt P23743)
# Test: Human DGKα kinase activity inhibition assay (ADP-Glo)
# Type: biochemical
# Conditions: in vitro human DGKα kinase activity inhibition assay
# Outline: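 C-terminally FLAG-tagged full-length human DGKα from baculovirus/insect cells (typically ~0.1 nM) phosphorylated 1,2-dioleoyl-sn-glycerol in octyl-β-D-glucopyranoside micelles in MOPS pH 7.4. ADP formed was quantified by ADP-Glo luminescence after 1 h ATP depletion at 22 °C.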
# Sequence of DGKα (P23743 with tags, fused parts or gaps): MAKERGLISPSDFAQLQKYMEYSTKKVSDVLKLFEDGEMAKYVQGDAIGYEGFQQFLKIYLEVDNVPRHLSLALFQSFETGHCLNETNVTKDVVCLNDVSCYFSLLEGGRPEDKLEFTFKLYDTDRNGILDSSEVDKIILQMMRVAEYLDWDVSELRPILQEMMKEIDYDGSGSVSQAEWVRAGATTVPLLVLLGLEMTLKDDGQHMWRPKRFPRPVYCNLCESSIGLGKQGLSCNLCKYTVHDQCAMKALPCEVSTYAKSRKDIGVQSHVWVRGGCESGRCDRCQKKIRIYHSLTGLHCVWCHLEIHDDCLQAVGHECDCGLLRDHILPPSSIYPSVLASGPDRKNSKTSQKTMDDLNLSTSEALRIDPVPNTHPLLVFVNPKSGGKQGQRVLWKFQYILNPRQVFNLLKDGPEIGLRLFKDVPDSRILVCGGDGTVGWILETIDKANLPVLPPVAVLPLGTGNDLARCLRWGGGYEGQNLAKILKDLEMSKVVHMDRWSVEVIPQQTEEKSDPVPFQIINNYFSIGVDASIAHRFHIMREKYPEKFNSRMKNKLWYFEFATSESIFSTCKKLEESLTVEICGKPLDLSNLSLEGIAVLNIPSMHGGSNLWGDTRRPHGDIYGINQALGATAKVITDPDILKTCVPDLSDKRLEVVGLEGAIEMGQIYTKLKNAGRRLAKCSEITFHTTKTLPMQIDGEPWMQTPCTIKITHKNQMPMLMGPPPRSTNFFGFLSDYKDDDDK
row,SMILES,IC50
1,COc1ccccc1OC1CCN(c2c(C(N)=O)c(=O)n(C)c3ccc(C)cc23)CC1 [Example 162],57 nM
2,"COc1ccc2c(c1)c(N1CCC(Oc3ccc(OC(F)(F)F)cc3)CC1)c(C#N)c(=O)n2C [Example 156, 6-methoxy-1-methyl-2-oxo-4-{4-[4-(trifluoromethoxy)phenoxy]piperidin-1-yl}-1,2-dihydroquinoline-3-carbonitrile]",7 nM
3,"Cn1c(=O)c(C#N)c(N2CCC(Oc3ccc(OC(F)(F)F)cc3)CC2)c2ccc(F)cc21 [Example 63, 7-fluoro-1-methyl-2-oxo-4-{4-[4-(trifluoromethoxy)phenoxy]piperidin-1-yl}-1,2-dihydroquinoline-3-carbonitrile]",12 nM
4,"CCCCOc1ccc2c(N3CCC(Sc4ccccc4)CC3)c(C#N)c(=O)n(C)c2c1 [Example 69, 7-butoxy-1-methyl-2-oxo-4-[4-(phenylsulfanyl)piperidin-1-yl]-1,2-dihydroquinoline-3-carbonitrile]",507 nM
5,"Cn1c(=O)c(C(N)=O)c(N2CCC(Oc3ccc(OC(F)F)cc3)CC2)c2ccccc21 [Example 52, 4-{4-[4-(difluoromethoxy)phenoxy]piperidin-1-yl}-1-methyl-2-oxo-1,2-dihydroquinoline-3-carboxamide]",3.8 nM
6,"COc1cc(C)ccc1OC1CCN(c2c(C(N)=O)c(=O)n(C)c3ccc(C)cc23)CC1 [Example 161, 4-[4-(2-methoxy-4-methylphenoxy)piperidin-1-yl]-1,6-dimethyl-2-oxo-1,2-dihydroquinoline-3-carboxamide]",21 nM
7,"Cn1c(=O)c(C#N)c(N2CCC(Sc3ccccc3)CC2)c2ccccc21 [Example 53, 1-methyl-2-oxo-4-[4-(phenylsulfanyl)piperidin-1-yl]-1,2-dihydroquinoline-3-carbonitrile]",1.1 nM
8,"Cc1ccccc1COC1CCN(c2c(C#N)c(=O)n(C)c3ccccc23)CC1 [Example 114, 1-methyl-4-{4-[(2-methylphenyl)methoxy]piperidin-1-yl}-2-oxo-1,2-dihydroquinoline-3-carbonitrile]",16 nM
9,"Cn1c(=O)c(C#N)c(N2CCC(OCc3ccccc3F)CC2)c2ccccc21 [Example 111, 4-{4-[(2-fluorophenyl)methoxy]piperidin-1-yl}-1-methyl-2-oxo-1,2-dihydroquinoline-3-carbonitrile]",4.8 nM
10,"COc1cccc(OC2CCN(c3c(C#N)c(=O)n(C)c4ccccc34)CC2)c1 [Example 4, 4-[4-(3-methoxyphenoxy)piperidin-1-yl]-1-methyl-2-oxo-1,2-dihydroquinoline-3-carbonitrile]",6.3 nM
11,"Cc1ccc2c(c1)c(N1CCC(Oc3ccc(F)cc3)CC1)c(C#N)c(=O)n2C [Example 141, 4-[4-(4-fluorophenoxy)piperidin-1-yl]-1,6-dimethyl-2-oxo-1,2-dihydroquinoline-3-carbonitrile]",7.7 nM
12,"CN1CCCN(c2ccc(OC3CCN(c4c(C#N)c(=O)n(C)c5ccccc45)CC3)cc2)C1=O [Example 21, 1-methyl-4-{4-[4-(3-methyl-2-oxo-1,3-diazinan-1-yl)phenoxy]piperidin-1-yl}-2-oxo-1,2-dihydroquinoline-3-carbonitrile]",119 nM
13,"Cn1c(=O)c(C#N)c(N2CCC(Oc3ccc(OC(F)(F)F)cc3)CC2)c2cc(F)ccc21 [Example 166, 6-fluoro-1-methyl-2-oxo-4-{4-[4-(trifluoromethoxy)phenoxy]piperidin-1-yl}-1,2-dihydroquinoline-3-carbonitrile]",0.97 nM
14,"Cn1c(=O)c(C#N)c(N2CCC(Oc3ccc(N=S(C)(C)=O)cc3)CC2)c2ccccc21 [Example 30, 4-[4-(4-{[dimethyl(oxo)-λ^6-sulfanylidene]amino}phenoxy)piperidin-1-yl]-1-methyl-2-oxo-1,2-dihydroquinoline-3-carbonitrile]",1530 nM
15,"Cn1c(=O)c(C#N)c(N2CCC(Oc3ccc(C(N)=O)cc3)CC2)c2ccccc21 [Example 35, 4-{[1-(3-cyano-1-methyl-2-oxo-1,2-dihydroquinolin-4-yl)piperidin-4-yl]oxy}benzamide]",646 nM
16,"Cn1c(=O)c(C(N)=O)c(N2CCC(OCc3ccccc3F)CC2)c2ccccc21 [Example 126, 4-{4-[(2-fluorophenyl)methoxy]piperidin-1-yl}-1-methyl-2-oxo-1,2-dihydroquinoline-3-carboxamide]",14 nM
17,"Cn1c(=O)c(C#N)c(N2CCC(Oc3ccc(Cl)cc3)CC2)c2ccccc21 [Example 10, 4-[4-(4-chlorophenoxy)piperidin-1-yl]-1-methyl-2-oxo-1,2-dihydroquinoline-3-carbonitrile]",10 nM
18,"Cc1ccc2c(N3CCC(Oc4ccccc4)CC3)c(C#N)c(=O)n(C)c2c1 [Example 88, 1,7-dimethyl-2-oxo-4-(4-phenoxypiperidin-1-yl)-1,2-dihydroquinoline-3-carbonitrile]",5.8 nM
19,"Cn1c(=O)c(C(N)=O)c(N2CCC(Oc3ccc(OC(F)(F)F)cc3)CC2)c2ccc(F)cc21 [Example 99, 7-fluoro-1-methyl-2-oxo-4-{4-[4-(trifluoromethoxy)phenoxy]piperidin-1-yl}-1,2-dihydroquinoline-3-carboxamide]",1.2 nM

# Other lines, results leading:
row,IC50,SMILES
1,1.7 nM,"Cn1c(=O)c(C(N)=O)c(N2CCC(Oc3cccc(Cl)c3)CC2)c2ccccc21 [Example 49, 4-[4-(3-chlorophenoxy)piperidin-1-yl]-1-methyl-2-oxo-1,2-dihydroquinoline-3-carboxamide]"
2,2.3 nM,"Cn1c(=O)c(C#N)c(N2CCC(Oc3ccc(OC(F)(F)F)cc3)CC2)c2ccc(O)cc21 [Example 62, 7-hydroxy-1-methyl-2-oxo-4-{4-[4-(trifluoromethoxy)phenoxy]piperidin-1-yl}-1,2-dihydroquinoline-3-carbonitrile]"
3,29 nM,"Cn1c(=O)c(C#N)c(N2CCC(Sc3ccccc3)CC2)c2ccc(C3CC3)cc21 [Example 68, 7-cyclopropyl-1-methyl-2-oxo-4-[4-(phenylsulfanyl)piperidin-1-yl]-1,2-dihydroquinoline-3-carbonitrile]"
4,55 nM,"Cn1c(=O)c(C#N)c(N2CCC(Oc3ccc(N4CCCC4=O)cc3)CC2)c2ccccc21 [Example 18, 1-methyl-2-oxo-4-{4-[4-(2-oxopyrrolidin-1-yl)phenoxy]piperidin-1-yl}-1,2-dihydroquinoline-3-carbonitrile]"
5,1370 nM,"Cn1c(=O)c(C#N)c(N2CCC(Oc3ccc(OC(F)(F)F)cc3)CC2)c2cccc(P(C)(C)=O)c21 [Example 135, 8-(dimethylphosphoryl)-1-methyl-2-oxo-4-{4-[4-(trifluoromethoxy)phenoxy]piperidin-1-yl}-1,2-dihydroquinoline-3-carbonitrile]"
6,536 nM,"Cn1c(=O)c(C#N)c(N2CCC(Oc3ccc(OC(F)(F)F)cc3)CC2)c2cccc(C#N)c21 [Example 132, 1-methyl-2-oxo-4-{4-[4-(trifluoromethoxy)phenoxy]piperidin-1-yl}-1,2-dihydroquinoline-3,8-dicarbonitrile]"
7,18 nM,"Cn1c(=O)c(C#N)c(N2CCC(Oc3ccc(C(F)(F)F)cc3)CC2)c2ccc(Br)cc21 [Example 59, 7-bromo-1-methyl-2-oxo-4-{4-[4-(trifluoromethyl)phenoxy]piperidin-1-yl}-1,2-dihydroquinoline-3-carbonitrile]"
8,3.9 nM,"Cn1c(=O)c(C#N)c(N2CCC(Oc3ccc(OC(F)(F)F)cc3)CC2)c2ccccc21 [Example 2, 1-methyl-2-oxo-4-{4-[4-(trifluoromethoxy)phenoxy]piperidin-1-yl}-1,2-dihydroquinoline-3-carbonitrile]"
9,556 nM,"Cc1cc(Br)c2c(c1)c(N1CCC(Oc3ccc(OC(F)(F)F)cc3)CC1)c(C#N)c(=O)n2C [Example 168, 8-bromo-1,6-dimethyl-2-oxo-4-{4-[4-(trifluoromethoxy)phenoxy]piperidin-1-yl}-1,2-dihydroquinoline-3-carbonitrile]"
10,37 nM,"Cn1c(=O)c(C#N)c(N2CCC(Oc3ccc(OC(F)(F)F)cc3)CC2)c2cccc(N=S(C)(C)=O)c21 [Example 134, 8-{[dimethyl(oxo)-λ^6-sulfanylidene]amino}-1-methyl-2-oxo-4-{4-[4-(trifluoromethoxy)phenoxy]piperidin-1-yl}-1,2-dihydroquinoline-3-carbonitrile]"
11,13 nM,"Cn1c(=O)c(C#N)c(N2CCC(Oc3cccc(Cl)c3)CC2)c2ccc(C3COC3)cc21 [Example 73, 4-[4-(3-chlorophenoxy)piperidin-1-yl]-1-methyl-7-(oxetan-3-yl)-2-oxo-1,2-dihydroquinoline-3-carbonitrile]"
12,17 nM,"Cn1c(=O)c(C#N)c(N2CCC(Oc3ccc(F)cc3)CC2)c2cc(C#N)ccc21 [Example 146, 4-[4-(4-fluorophenoxy)piperidin-1-yl]-1-methyl-2-oxo-1,2-dihydroquinoline-3,6-dicarbonitrile]"
13,1240 nM,"Cn1c(=O)c(C#N)c(N2CCC(Oc3ccc(OC(F)(F)F)cc3)CC2)c2cc(Cl)ccc21 [Example 157, 6-chloro-1-methyl-2-oxo-4-{4-[4-(trifluoromethoxy)phenoxy]piperidin-1-yl}-1,2-dihydroquinoline-3-carbonitrile]"
14,521 nM,"Cn1c(=O)c(C#N)c(N2CCC(Oc3cnc(C(F)(F)F)nc3)CC2)c2ccccc21 [Example 28, 1-methyl-2-oxo-4-(4-{[2-(trifluoromethyl)pyrimidin-5-yl]oxy}piperidin-1-yl)-1,2-dihydroquinoline-3-carbonitrile]"
15,416 nM,"Cn1c(=O)c(C#N)c(N2CCC(Oc3ccc(OC(F)(F)F)cc3)CC2)c2ccc(P(C)(C)=O)cc21 [Example 79, 7-(dimethylphosphoryl)-1-methyl-2-oxo-4-{4-[4-(trifluoromethoxy)phenoxy]piperidin-1-yl}-1,2-dihydroquinoline-3-carbonitrile]"
16,18 nM,"Cn1c(=O)c(C#N)c(N2CCCC(Oc3ccc(OC(F)(F)F)cc3)CC2)c2ccccc21 (single isomer, unassigned; enantiomer 2) [Example 102, 1-methyl-2-oxo-4-{4-[4-(trifluoromethoxy)phenoxy]azepan-1-yl}-1,2-dihydroquinoline-3-carbonitrile, enantiomer 2]"
